Measurements reported in patent US20110104274A1, “NOVEL COMPOSITION AND USES THEREOF, IN PARTICULAR COSMETIC USES, FOR TREATING SKIN DEHYDRATION” (COMPAGNIE GERVAIS DANONE, priority 2006, published 2011).

Legend:
[1] = Bioavailability study: plasma/serum concentrations of catechins (EC, EGC, EGCG) after ingestion; assay type: in vivo, human; details: ingestion of 45 mg of catechins
Description: This study evaluates the bioavailability of the combination of catechins with GLA, and in particular the bioavailability of this combination in a yoghurt containing probiotics (see Table 1).
To evaluate this bioavailability, the plasma concentrations of GLA and of catechins are monitored at different points in time after ingestion of products 1, 2, 3 or 4.
This study is a norm-centred, randomized, open study. It was carried out with 12 female volunteers (average age 30.8 years; body mass index (BMI) on average 21.4).
During each assessment visit (V2, V3, V4), the subjects consumed a product at random (among the 4 products). […]
[…] blood samples were taken in the 6 hours following ingestion of the product. The plasma concentration of the active ingredients was measured at 6 points in time (T0, T1 h, T2 h, T3 h, T4 h, T6 h) for measuring the plasma kinetics of GLA and the catechins. […]
The plasma concentrations of catechins and specifically of epicatechin (EC), epigallocatechin (EGC), and epigallocatechin gallate (EGCG) were determined by HPLC as described by Lee et al. (Lee M J, Prabhu S, Meng X, Li C, Yang C S. An improved method for the determination of green and black tea polyphenols in biomatrices by high-performance liquid chromatography with coulometric array detection. Anal. Biochem. 2000; 279: 164-9) and on the basis of the general knowledge of a person skilled in the art. […]

promoter of involucrin = details: high dose of 20 μg/mL; literature; cited from earlier work
[2] = system: transglutaminase K (TGK) expression in normal human keratinocytes (NHEKs); test: Expression of transglutaminase K (TGK) in NHEKs (immunofluorescence related to number of nuclei); assay type: cell-based; details: for Expression of TGK (average): related to negative control
Description: The GLA used is the product L2378 from the company SIGMA. The 4 main forms of catechins forming green tea polyphenol are mixed in the natural proportions: EGCG, EGC, ECG and EC (respective SIGMA references E4143, E3768, E3893 and E4018).
The range of concentration of GLA tested in vitro was from 1 to 4 μg/ml and that of GTP was from 0.3 to 0.7 μg/ml.
(§1) The tests are carried out on normal human keratinocytes (NHEKs) in a monolayer. The NHEKs are sown at 10^4/well in serum-free medium (SFM) without calcium, under conditions of temperature of 37° C., CO2 of 5% and relative humidity RH>95%. The NHEKs are incubated like this for 24 hours. The medium is then removed. Then the NHEKs are incubated for 48 hours in the presence of either: • SFM (serum-free medium) with addition of gamma-linolenic acid and green tea polyphenols at a concentration of 1.25, 2.5 or 3.75 μg/mL for GLA and at a concentration of 0.5 μg/ml for GTP; • SFM (serum-free medium) without calcium, which serves as negative control; • SFM (serum-free medium) with addition of calcium (1.50 mM), which serves as positive control.
The media are removed and a second incubation is carried out in the presence of the 3 types of media.
The culture medium is removed and then rinsing with PBS is carried out. The cells are then permeabilized and fixed with absolute methanol for 10 minutes at −20° C. Then drying and nonspecific saturation with a PBS-Tween20-milk proteins mixture are carried out, followed by rinsing with PBS. The NHEK cells are labelled with an anti-TGK monoclonal antibody (Reference: TEBU 0175003), then incubated for 1 hour at room temperature and rinsed with PBS.
Detection is carried out with a GAM-FITC conjugated secondary antibody (Reference: Life Technology A 11001) and the fluorescence is measured using software (Reference: NIKKON; LICIA Software).
The nuclei are labelled and counted by the Hoechst technique. First, the medium is removed and rinsing with PBS is carried out. Hoechst labelling (Reference: bis-benzimide Sigma B1155) is then used and incubation is carried out for 1 hour at ambient temperature. This is followed by rinsing with PBS, image acquisition and quantification of fluorescence.
The results are expressed in specific fluorescence of TGK, i.e. they are related to the number of nuclei so as to be independent of the variations in growth of the cells.
The average expression of TGK corresponds to measurement of the quantity of fluorescence referred to the number of nuclei after Hoechst labelling.

[3] = system: normal human keratinocytes (NHEKs); test: Cytotoxicity test (MTT) on NHEKs, TGK study; assay type: cell-based; details: MTT labelling
Description: as §1
(§2) The cell viability of the NHEKs is evaluated after labelling with 3-[4,5-dimethylthiazol-2-yl]-2,5-diphenyltetrazolium bromide (MTT) (SIGMA).

[4] = system: involucrin expression in normal human keratinocytes (NHEKs); test: Expression of involucrin in NHEKs (ELISA); assay type: cell-based; details: 0 to 10 μg/mL; NHEKs of groups 1 (abdominal) and 2 (breast); high or low calcium concentration; 48 hours
Description: The GLA used is the product L2378 from the company SIGMA.
(§3) The NHEKs of the two groups are incubated for 48 hours in the presence of a low ([…]) or a high ([…]) concentration of calcium, and in the presence of either: • SFM (serum-free medium) with addition of 0, 1, 3 and 10 μg/mL of gamma-linolenic acid and/or of green tea extracts, in which the concentration of green tea polyphenol is approximately 88 wt. %; • SFM (serum-free medium) with addition of calcium, which serves as positive control.

[5] = system: normal human keratinocytes (NHEKs); test: Cytotoxicity test (MTT) on NHEKs, involucrin study; assay type: cell-based; details: up to 10 μg/mL, regardless of the calcium concentration
Description: as §3, §2

For `O=C(O[C@@H]1Cc2c(O)cc(O)cc2O[C@@H]1c1cc(O)c(O)c(O)c1)c1cc(O)c(O)c(O)c1` [EGCG, epigallocatechin gallate], the “concentration of the individual catechin in the serum” value [1] is given as 0.04 to 0.33 µmol, the “concentration of the individual catechin in the serum” value ([1]; mass units) is given as 18 to 152 ng/mL and the “effect on the promoter of involucrin” value (promoter of involucrin) is given as “activation”.

With `[Ca+2]` [Ca++, calcium] the “Expression of TGK (average)” value ([2]; positive control, calcium 1.5 mM) was 1407%.

For `CCCCC/C=C\C/C=C\C/C=C\CCCCC(=O)O` [GLA, gamma-linolenic acid], the “Expression of TGK (average)” value ([2]; GLA 1.25 μg/mL) was 250%, the “Expression of TGK (average)” value ([2]; GLA 3.75 μg/mL) was 220% and the “expression/activation of TGK after treatment (conclusion in words)” value ([2]; at the concentrations tested (GLA 1.25 and 3.75 μg/mL; GTP 0.5 μg/mL; GLA 2.5 + GTP 0.5 μg/mL)) was “seems to be activated”. The “maximum concentration without loss of viability of the NHEKs” value [3] was 5.00 µg/mL, the “expression of involucrin after treatment alone” value [4] was “increased” and the “toxicity to the NHEKs” value [5] was “not toxic”.
